The subject of experiment [1] is HITC6 SMCs. The experiment in a line: Senescence-associated beta-galactosidase activity / senescence-free survival. In kind it is cell-based, human. The procedure: Senescence-associated β-Galatosidase Activity Assay. SMCs on glass coverslips at approximately 70% confluence were fixed in 2% formaldehyde/0.2% glutaraldehyde in PBS for 3 minutes and incubated with X-gal-containing reaction mixture, as previously described (Dimri, 1995). Washed cells were stained with Hoechst 33258 (2.5 μg/ml) and the proportion of senescence-associated β-galactosidase (SA β-Gal)-positive cells quantified from 10 microscope fields of view (Olympus BX51, ×20 objective, approximately 1200 cells). Senescence-free survival was determined using Kaplan-Meier analysis of survival vs. replicative age.
Senescence-associated Beta-galactosidase Activity. Senescence-associated beta-galactosidase (SA-β-gal) activity was determined as previously described (Dimri et al, 1995). Briefly, SMCs were fixed in PBS containing 2% formaldehyde/0.2% glutaraldehyde for 3 min at room temperature. Fixed cells were then incubated for 4-6 h at 37° C. with SA-β-gal stain solution containing 150 mM NaCl, 2 mM MgCl, 40 mM citrate, 5 mM potassium ferrocyanide, 5 mM potassium ferricyanide, and 1 mg/ml of 5-bromo-4-chloro-3-indolyl-β-D-galactopyranoside (X-gal) (Invitrogen, Carlsbad, Calif., USA), at pH 6.0. SMCs were counterstained with 2.5 μg/ml Hoechst 33258 to detect cell nuclei. The proportion of SA-β-gal activity positive cells was quantified using light and fluorescence microscopy (Olympus BX51, Center Valley, Pa., USA).

Experiment [2] concerns SIRT1. In words: SIRT1 deacetylase activity in live SMCs (Fluor de Lys-SIRT1 substrate, TSA-independent). The conditions noted are these: SMCs overexpressing Nampt; p=0.03, n=4. In kind it is cell-based, human. The procedure: In vivo assessment of SIRT1 deacetylase activity. Cell-based assessment of SIRT1-like enzymatic activity was performed using the Fluor de lys-SIRT1 substrate (Biomol, Plymouth Meeting, Pa.), as previously described (de Boer, 2006). SMCs in phenol-red free M199 with 5% FBS were incubated for 2 h with 5 μM TSA followed by addition of the fluorogenic substrate for 4 h. Signal was quantified by spectrofluorimetry (Wallac, Wellesley, Mass.) and normalized to total protein content.
Assessment of SIRT1 Deacetylase Activity. SIRT1 deacetylase activity was quantified in live cells as previously reported (de Boer et al, 2006). SMCs cultured in phenol red-free M199 were incubated without serum for 2 h with 1 μM trichostatin A (Sigma, St. Louis, Mo., USA) followed by addition of 25 μM Fluor-de-Lys-SIRT1 fluorogenic substrate (Biomol, Plymouth Meeting, Pa., USA) for 4 h. Media containing fluorogenic substrate and reaction product was incubated with an equal volume of SIRT1 assay buffer containing 2 mM nicotinamide and developer (Biomol, Plymouth Meeting, Pa., USA). Signal was quantified by spectrofluorometry (Wallac VICTOR-1420, PerkinElmer Life Science, Waltham, Mass., USA) and normalized to total protein content

As for “PBEF: 52-55 kD protein, rate-limiting enzyme for NAD+ biosynthesis from nicotinamide; tested by retroviral cDNA overexpression in cells”, the “senescence-free survival (Kaplan-Meier) vs vector-infected cells” value in experiment [1] (PBEF-overexpressing SMCs, p<0.0001) was “markedly extended”. Further, the “reduction in senescent SMCs” value in experiment [1] (late-passage (37th) PBEF-overexpressing SMCs, p=0.003) is 19±2%. The “increase in SIRT1 activity” value in experiment [2] is listed as 86±4%.

Source of the values: patent US20080318892A1, “METHODS AND FORMULATIONS FOR PROTECTING CELLS, AND FOR TREATING DISEASES AND CONDITIONS BY OPTIMIZING THE INTRACELLULAR CONCENTRATION OF NAD” (priority 2007, published 2008).
